Source: ChEMBL document CHEMBL1287680, “C-11 diamino cryptolepine derivatives NSC748392, NSC748393, and NSC748394: anticancer profile and G-quadruplex stabilization” (Bioorg Med Chem Lett, 2010)

Key:
Nucleic Acid = conditions: Homo sapiens
Description: Binding affinity to human G-quadruplex DNA assessed as change in melting temperature by FRET-melting assay

OVCAR-3 = assay: cells; conditions: Homo sapiens
Description: Anticancer activity against human OVCAR-3 cells

UACC-62 = assay: cells; conditions: Homo sapiens
Description: Anticancer activity against human UACC62 cells

UACC-257 = assay: cells; conditions: Homo sapiens
Description: Anticancer activity against human UACC257 cells

SK-MEL-5 = assay: cells; conditions: Homo sapiens
Description: Anticancer activity against human SK-MEL-5 cells

Malme-3M = assay: cells; conditions: Homo sapiens
Description: Anticancer activity against human MALME-3M cells

LOX IMVI = assay: cells; conditions: Homo sapiens
Description: Anticancer activity against human LOXIMVI cells

U-251 = assay: cells; conditions: Homo sapiens
Description: Anticancer activity against human U251 cells

SNB-19 = assay: cells; conditions: Homo sapiens
Description: Anticancer activity against human SNB19 cells

SF-539 = assay: cells; conditions: Homo sapiens
Description: Anticancer activity against human SF539 cells

SF-295 = assay: cells; conditions: Homo sapiens
Description: Anticancer activity against human SF295 cells

SW-620 = assay: cells; conditions: Homo sapiens
Description: Anticancer activity against human SW620 cells

HCT-15 = assay: cells; conditions: Homo sapiens
Description: Anticancer activity against human HCT15 cells

COLO 205 = assay: cells; conditions: Homo sapiens
Description: Anticancer activity against human COLO205 cells

NCI-H522 = assay: cells; conditions: Homo sapiens
Description: Anticancer activity against human NCI-H522 cells

NCI-H460 = assay: cells; conditions: Homo sapiens
Description: Anticancer activity against human NCI-H460 cells

NCI-H322M = assay: cells; conditions: Homo sapiens
Description: Anticancer activity against human NCI-H322M cells

NCI-H23 = assay: cells; conditions: Homo sapiens
Description: Anticancer activity against human NCI-H23 cells

HOP-92 = assay: cells; conditions: Homo sapiens
Description: Anticancer activity against human HOP92 cells

EKVX = assay: cells; conditions: Homo sapiens
Description: Anticancer activity against human EKVX cells

A549 = assay: cells; conditions: Homo sapiens
Description: Anticancer activity against human A549 cells

SR = assay: cells; conditions: Homo sapiens
Description: Anticancer activity against human SR cells

MOLT-4 = assay: cells; conditions: Homo sapiens
Description: Anticancer activity against human MOLT4 cells

CCRF-CEM = assay: cells; conditions: Homo sapiens
Description: Anticancer activity against human CCRF-CEM cells

BT-549 = assay: cells; conditions: Homo sapiens
Description: Anticancer activity against human BT549 cells

T47D = assay: cells; conditions: Homo sapiens
Description: Anticancer activity against human T47D cells

MDA-MB-468 = assay: cells; conditions: Homo sapiens
Description: Anticancer activity against human MDA-MB-468 cells

cells = conditions: Homo sapiens, Hs-578T
Description: Anticancer activity against human Hs 578T cells

MDA-MB-231 = assay: cells; conditions: Homo sapiens
Description: Anticancer activity against human MDA-MB-231 cells

PC-3 = assay: cells; conditions: Homo sapiens
Description: Anticancer activity against human PC3 cells

A498 = assay: cells; conditions: Homo sapiens
Description: Anticancer activity against human A498 cells

786-0 = assay: cells; conditions: Homo sapiens
Description: Anticancer activity against human 786-0 cells

in vivo = conditions: mouse, cancer cell lines
Description: Toxicity in cancer cells containing hollow fiber implanted mouse

**Q.** For `C[n+]1c2ccccc2c(Nc2ccc(N3CCCCC3)cc2)c2[nH]c3ccccc3c21.[Cl-]`, which ΔTm (Nucleic Acid) is on record?
**A.** 4.2 °C

**Q.** What about the GI50 (OVCAR-3; OVCAR-3, read-out: pGI50 (converted)) of the same compound?
**A.** 224 nM

**Q.** And the CC50 (OVCAR-3; OVCAR-3, read-out: pLC50 (converted))?
**A.** 933 nM

**Q.** What about the TGI (OVCAR-3; OVCAR-3, read-out: pTGI) of the same compound?
**A.** 457 nM

**Q.** What about the GI50 (UACC-62; UACC-62, read-out: pGI50 (converted)) of the same compound?
**A.** 427 nM

**Q.** And the TGI (UACC-62; UACC-62, read-out: pTGI)?
**A.** 1910 nM

**Q.** What about the GI50 (UACC-257; UACC-257, read-out: pGI50 (converted)) of the same compound?
**A.** 1230 nM

**Q.** And the TGI (UACC-257; UACC-257, read-out: pTGI)?
**A.** 2690 nM

**Q.** What about the GI50 (SK-MEL-5; SK-MEL-5, read-out: pGI50 (converted)) of the same compound?
**A.** 229 nM

**Q.** What about the CC50 (SK-MEL-5; SK-MEL-5, read-out: pLC50 (converted)) of the same compound?
**A.** 3470 nM

**Q.** What about the TGI (SK-MEL-5; SK-MEL-5, read-out: pTGI) of the same compound?
**A.** 1200 nM

**Q.** And the GI50 (Malme-3M; read-out: pGI50 (converted))?
**A.** 417 nM

**Q.** And the CC50 (Malme-3M; read-out: pLC50 (converted))?
**A.** 4570 nM

**Q.** And the TGI (Malme-3M; read-out: pTGI)?
**A.** 1700 nM

**Q.** What about the GI50 (LOX IMVI; read-out: pGI50 (converted)) of the same compound?
**A.** 148 nM

**Q.** What about the CC50 (LOX IMVI; read-out: pLC50 (converted)) of the same compound?
**A.** 1450 nM

**Q.** And the TGI (LOX IMVI; read-out: pTGI)?
**A.** 398 nM

**Q.** What about the GI50 (U-251; U-251, read-out: pGI50 (converted)) of the same compound?
**A.** 288 nM

**Q.** And the CC50 (U-251; U-251, read-out: pLC50 (converted))?
**A.** 3630 nM

**Q.** What about the TGI (U-251; U-251, read-out: pTGI) of the same compound?
**A.** 1230 nM

**Q.** And the GI50 (SNB-19; SNB-19, read-out: pGI50 (converted))?
**A.** 427 nM

**Q.** What about the CC50 (SNB-19; SNB-19, read-out: pLC50 (converted)) of the same compound?
**A.** 4370 nM

**Q.** And the TGI (SNB-19; SNB-19, read-out: pTGI)?
**A.** 1780 nM

**Q.** What about the GI50 (SF-539; SF-539, read-out: pGI50 (converted)) of the same compound?
**A.** 646 nM

**Q.** What about the CC50 (SF-539; SF-539, read-out: pLC50 (converted)) of the same compound?
**A.** 4470 nM

**Q.** What about the TGI (SF-539; SF-539, read-out: pTGI) of the same compound?
**A.** 1950 nM

**Q.** What about the GI50 (SF-295; SF-295, read-out: pGI50 (converted)) of the same compound?
**A.** 398 nM

**Q.** And the CC50 (SF-295; SF-295, read-out: pLC50 (converted))?
**A.** 4370 nM

**Q.** What about the TGI (SF-295; SF-295, read-out: pTGI) of the same compound?
**A.** 1580 nM

**Q.** What about the GI50 (SW-620; SW-620, read-out: pGI50 (converted)) of the same compound?
**A.** 105 nM

**Q.** And the TGI (SW-620; SW-620, read-out: pTGI)?
**A.** 372 nM

**Q.** What about the GI50 (HCT-15; HCT-15, read-out: pGI50 (converted)) of the same compound?
**A.** 170 nM

**Q.** What about the CC50 (HCT-15; HCT-15, read-out: pLC50 (converted)) of the same compound?
**A.** 912 nM

**Q.** What about the TGI (HCT-15; HCT-15, read-out: pTGI) of the same compound?
**A.** 398 nM

**Q.** And the GI50 (COLO 205; COLO 205, read-out: pGI50 (converted))?
**A.** 141 nM

**Q.** And the CC50 (COLO 205; COLO 205, read-out: pLC50 (converted))?
**A.** 851 nM

**Q.** And the TGI (COLO 205; COLO 205, read-out: pTGI)?
**A.** 347 nM

**Q.** And the GI50 (NCI-H522; NCI-H522, read-out: pGI50 (converted))?
**A.** 741 nM

**Q.** And the TGI (NCI-H522; NCI-H522, read-out: pTGI)?
**A.** 2140 nM

**Q.** And the GI50 (NCI-H460; NCI-H460, read-out: pGI50 (converted))?
**A.** 145 nM

**Q.** What about the CC50 (NCI-H460; NCI-H460, read-out: pLC50 (converted)) of the same compound?
**A.** 2290 nM

**Q.** What about the TGI (NCI-H460; NCI-H460, read-out: pTGI) of the same compound?
**A.** 468 nM

**Q.** What about the GI50 (NCI-H322M; read-out: pGI50 (converted)) of the same compound?
**A.** 1020 nM

**Q.** And the CC50 (NCI-H322M; read-out: pLC50 (converted))?
**A.** 5500 nM

**Q.** And the TGI (NCI-H322M; read-out: pTGI)?
**A.** 2400 nM

**Q.** And the GI50 (NCI-H23; NCI-H23, read-out: pGI50 (converted))?
**A.** 398 nM

**Q.** What about the CC50 (NCI-H23; NCI-H23, read-out: pLC50 (converted)) of the same compound?
**A.** 6610 nM

**Q.** What about the TGI (NCI-H23; NCI-H23, read-out: pTGI) of the same compound?
**A.** 1700 nM

**Q.** What about the GI50 (HOP-92; HOP-92, read-out: pGI50 (converted)) of the same compound?
**A.** 263 nM

**Q.** What about the CC50 (HOP-92; HOP-92, read-out: pLC50 (converted)) of the same compound?
**A.** 5130 nM

**Q.** And the TGI (HOP-92; HOP-92, read-out: pTGI)?
**A.** 1200 nM

**Q.** And the GI50 (EKVX; read-out: pGI50 (converted))?
**A.** 427 nM

**Q.** What about the CC50 (EKVX; read-out: pLC50 (converted)) of the same compound?
**A.** 4680 nM

**Q.** What about the TGI (EKVX; read-out: pTGI) of the same compound?
**A.** 1860 nM

**Q.** And the GI50 (A549; A549, read-out: pGI50 (converted))?
**A.** 162 nM

**Q.** And the CC50 (A549; A549, read-out: pLC50 (converted))?
**A.** > 100000 nM

**Q.** What about the TGI (A549; A549, read-out: pTGI) of the same compound?
**A.** 589 nM

**Q.** And the GI50 (SR; read-out: pGI50 (converted))?
**A.** 3800 nM

**Q.** And the CC50 (SR; read-out: pLC50 (converted))?
**A.** > 100000 nM

**Q.** And the TGI (SR; read-out: pTGI)?
**A.** > 100000 nM

**Q.** And the GI50 (MOLT-4; MOLT-4, read-out: pGI50 (converted))?
**A.** 70.8 nM

**Q.** And the CC50 (MOLT-4; MOLT-4, read-out: pLC50 (converted))?
**A.** > 100000 nM

**Q.** What about the TGI (MOLT-4; MOLT-4, read-out: pTGI) of the same compound?
**A.** 8710 nM

**Q.** What about the GI50 (CCRF-CEM; read-out: pGI50 (converted)) of the same compound?
**A.** 162 nM

**Q.** What about the CC50 (CCRF-CEM; read-out: pLC50 (converted)) of the same compound?
**A.** 2000 nM

**Q.** And the TGI (CCRF-CEM; read-out: pTGI)?
**A.** 427 nM

**Q.** And the GI50 (BT-549; BT-549, read-out: pGI50 (converted))?
**A.** 1290 nM

**Q.** What about the CC50 (BT-549; BT-549, read-out: pLC50 (converted)) of the same compound?
**A.** 5250 nM

**Q.** What about the TGI (BT-549; BT-549, read-out: pTGI) of the same compound?
**A.** 2630 nM

**Q.** What about the GI50 (T47D; read-out: pGI50 (converted)) of the same compound?
**A.** 214 nM

**Q.** And the TGI (T47D; read-out: pTGI)?
**A.** 603 nM

**Q.** What about the GI50 (MDA-MB-468; MDA-MB-468, read-out: pGI50 (converted)) of the same compound?
**A.** 135 nM

**Q.** And the CC50 (MDA-MB-468; MDA-MB-468, read-out: pLC50 (converted))?
**A.** 891 nM

**Q.** And the TGI (MDA-MB-468; MDA-MB-468, read-out: pTGI)?
**A.** 347 nM

**Q.** What about the GI50 (cells; read-out: pGI50 (converted)) of the same compound?
**A.** 275 nM

**Q.** And the TGI (cells; read-out: pTGI)?
**A.** 1000 nM

**Q.** What about the GI50 (MDA-MB-231; MDA-MB-231, read-out: pGI50 (converted)) of the same compound?
**A.** 490 nM

**Q.** And the CC50 (MDA-MB-231; MDA-MB-231, read-out: pLC50 (converted))?
**A.** 6030 nM

**Q.** And the TGI (MDA-MB-231; MDA-MB-231, read-out: pTGI)?
**A.** 2090 nM

**Q.** What about the GI50 (PC-3; PC-3, read-out: pGI50 (converted)) of the same compound?
**A.** 195 nM

**Q.** What about the CC50 (PC-3; PC-3, read-out: pLC50 (converted)) of the same compound?
**A.** 3240 nM

**Q.** What about the TGI (PC-3; PC-3, read-out: pTGI) of the same compound?
**A.** 631 nM

**Q.** What about the GI50 (A498; A498, read-out: pGI50 (converted)) of the same compound?
**A.** 178 nM

**Q.** What about the CC50 (A498; A498, read-out: pLC50 (converted)) of the same compound?
**A.** 2140 nM

**Q.** And the TGI (A498; A498, read-out: pTGI)?
**A.** 537 nM

**Q.** And the GI50 (786-0; 786-0, read-out: pGI50 (converted))?
**A.** 457 nM

**Q.** And the CC50 (786-0; 786-0, read-out: pLC50 (converted))?
**A.** 5500 nM

**Q.** What about the TGI (786-0; 786-0, read-out: pTGI) of the same compound?
**A.** 1700 nM

**Q.** What about the MTD (in vivo) of the same compound?
**A.** 160 mg/kg
